Laboratory results taken from patent US20220296628A1, “RNA COMBINATIONS AND COMPOSITIONS WITH DECREASED IMMUNOSTIMULATORY PROPERTIES” (CureVac AG, priority 2019, published 2022).

Tests used:
mice (strain 129SV) [1] = test: Serum cytokines by CBA 6 hours post LNP injection; assay type: in vivo, mouse; details: 6 hours post i.v. LNP injection, in a dose-dependent manner (oligo 20% or 6.7% mass), compared to PpLuc mRNA only (FIG. 4A)
Description: In supernatants collected from PBMC stimulated without or with 2-O-methylated oligonucleotide, the concentrations of IFN-α, IFN-γ, TNF, were measured by Cytometric Bead Array (CBA) according to the manufacturer's instructions (BD Biosciences) using the following kits: Human Soluble Protein Master Buffer Kit (catalog no. 558264), Assay Diluent (catalog no. 560104), Human IFN-α Flex Set (catalog no. 560379), Human IFN-γ Flex Set (catalog no. 558269), Human TNF Flex Set (catalog no. 560112); all kits from BD Biosciences. The data was analyzed using the FCAP Array v3.0 software (BD Biosciences). For preparation of Lipid nanoparticles (LNP) containing both PpLuc mRNA and 2-O-methylated oligonucleotide, first the 2′-O-methylated oligonucleotide was added to PpLuc mRNA at a weight percentage of either 20% or 6.7% (see Table 3). LNP containing PpLuc mRNA either with or without admixture of 2-O-methylated oligonucleotide were prepared using cationic lipid, cholesterol, PEG-lipid and a neutral lipid. The mRNA was diluted to 1 g/L in citrate buffer, pH 4. The ethanolic lipid solution was mixed with the aqueous RNA solution at a ratio of 1:3 (vol/vol) using a Nanoassemblr (PrecisionNanoSystems). The ethanol was then removed and the buffer replaced by 10 mM HEPES, pH 7.4 comprising 9% Sucrose by dialysis. Finally, the LNP-formulated RNA was adjusted to 0.2 g/L. For in vivo experiments, 8 weeks old female mice (around 25 g, strain 129SV) were injected with the various LNP formulations (see tables 4 and 5). 4 animals were used per group. 10 μg or 30 μg of mRNA formulated with or without 2′-O-methylated oligonucleotide were intravenously injected at a concentration of 0.2 g/l. Bioluminescence imaging was performed 6 hours and 24 hours post LNP injection. Blood was sampled 6 hours post LNP injection and terminally 24 hours post LNP injection. Immediately thereafter, mice were sacrificed, livers collected and placed in 1.5 ml PP tubes, frozen and stored until analysis (<−70° C.). To analyse the influence of the 2′-O-methylated oligonucleotide on immunostimulation, the concentrations of IFNγ, TNFα, IL-6, MIP-1β, RANTES, and MCP1 were measured in sera from blood collected 6 hours post LNP injection by Cytometric Bead Array (CBA), performed as described in paragraph 2.3. […] To further assess the influence of the 2′-O-methylated oligonucleotide on immunostimulation, the concentration of IFNα was measured in sera from blood collected 24 hours post LNP injection by ELISA.

mice (strain 129SV) [2] = test: PpLuc expression in liver lysates after i.v. injection of LNP-formulated PpLuc mRNA with or without oligonucleotide; assay type: in vivo, mouse; details: 24 hours post i.v. injection, 10 μg or 30 μg mRNA (either dose), compared to PpLuc mRNA without oligonucleotide (FIG. 3)
Description: For preparation of Lipid nanoparticles (LNP) containing both PpLuc mRNA and 2-O-methylated oligonucleotide, first the 2′-O-methylated oligonucleotide was added to PpLuc mRNA at a weight percentage of either 20% or 6.7% (see Table 3). LNP containing PpLuc mRNA either with or without admixture of 2-O-methylated oligonucleotide were prepared using cationic lipid, cholesterol, PEG-lipid and a neutral lipid. The mRNA was diluted to 1 g/L in citrate buffer, pH 4. The ethanolic lipid solution was mixed with the aqueous RNA solution at a ratio of 1:3 (vol/vol) using a Nanoassemblr (PrecisionNanoSystems). The ethanol was then removed and the buffer replaced by 10 mM HEPES, pH 7.4 comprising 9% Sucrose by dialysis. Finally, the LNP-formulated RNA was adjusted to 0.2 g/L.
For in vivo experiments, 8 weeks old female mice (around 25 g, strain 129SV) were injected with the various LNP formulations (see tables 4 and 5). 4 animals were used per group. […]
To prepare tissue lysates, first a steal bead was added to each liver. […] Plates were introduced into a plate reader (Berthold Technologies TriStar2 LB 942) and 50 μl per well of Beetle-Juice (PJK GmbH) containing luciferin as substrate for firefly luciferase was injected. Luciferase activity was quantified as relative light units (RLU). […]

5′-GAG CGmG CCA-3′ (GAGCNGCCA; 2'-O-methyl guanosine at position 5; 9mer oligonucleotide; modified_base (5)..(5) n can be any nucleotide, wherein the nucleotide is 2-O-methylated, preferably a 2-O-methylated guanosine) [Gm18, 9-mer 2′-O-methylated RNA oligonucleotide; position 5 is 2′-O-methylated guanosine (Gm); antagonist of TLR7 and 8]
release of IFNγ in sera (mice (strain 129SV) [1]): strongly decreases the release | release of IL-6 in sera (mice (strain 129SV) [1]): strongly decreases the release | release of MCP1 in sera (mice (strain 129SV) [1]): strongly decreases the release | release of MIP-1β in sera (mice (strain 129SV) [1]): strongly decreases the release | release of RANTES in sera (mice (strain 129SV) [1]): strongly decreases the release | release of TNFα in sera (mice (strain 129SV) [1]): strongly decreases the release | expression of PpLuc in liver lysates (luciferase activity) (mice (strain 129SV) [2]): increases the expression
